Test results published in PubChem BioAssay AID2060885 (Molecular Pharmacology Branch, DTP, NCI, 2025).

Tested on: NCI-H23 complex spheroids with HUVEC/MSC, viability
Assay: Anticancer human tumor NCI-H23 cell line growth inhibition [RAS];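 further: spheroids exposed to compound for 7 days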;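 on viability, T/C: 100% = DMSO vehicle control viability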
Details: for IC50: curve of first compound; for viability, T/C: stronger effect = lower value
Outline: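 Tumour cells grown as complex spheroids with HUVEC endothelial cells and mesenchymal stem cells, treated with RAS pathway inhibitor combinations. Each agent spans half-log steps from near clinical Cmax, or 10 microM where Cmax is unknown.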

O=C(c1ccc(F)c(F)c1Nc1ccc(I)cc1F)N1CC(O)([C@@H]2CCCCN2)C1 + C#Cc1c(F)ccc2cc(O)cc(-c3ncc4c(N5CC6CCC(C5)N6)nc(OCC56CCCN5CC(F)C6)nc4c3F)c12
IC50 (second compound 0.0316 µM): 82.6 nM | IC50 (second compound 0.1 µM): 77.3 nM | IC50 (second compound 0.316 µM): 73.2 nM | IC50 (second compound 1 µM): 68.3 nM | IC50 (second compound 3.16 µM): 15.4 nM | IC50 (second compound 10 µM): < 3.16 nM | viability, T/C (second compound 0.0316 µM, first compound 0.00316 µM): 108% | viability, T/C (second compound 0.0316 µM, first compound 0.01 µM): 105% | viability, T/C (second compound 0.0316 µM, first compound 0.0316 µM): 70.8% | viability, T/C (second compound 0.0316 µM, first compound 0.1 µM): 44.1% | viability, T/C (second compound 0.0316 µM, first compound 0.316 µM): 35.9% | viability, T/C (second compound 0.0316 µM, first compound 1 µM): 19.1% | viability, T/C (second compound 0.1 µM, first compound 0.00316 µM): 103% | viability, T/C (second compound 0.1 µM, first compound 0.01 µM): 103% | viability, T/C (second compound 0.1 µM, first compound 0.0316 µM): 65.1% | viability, T/C (second compound 0.1 µM, first compound 0.1 µM): 47.1% | viability, T/C (second compound 0.1 µM, first compound 0.316 µM): 30.9% | viability, T/C (second compound 0.1 µM, first compound 1 µM): 21.6% | viability, T/C (second compound 0.316 µM, first compound 0.00316 µM): 99.8% | viability, T/C (second compound 0.316 µM, first compound 0.01 µM): 112% | viability, T/C (second compound 0.316 µM, first compound 0.0316 µM): 72.6% | viability, T/C (second compound 0.316 µM, first compound 0.1 µM): 42.5% | viability, T/C (second compound 0.316 µM, first compound 0.316 µM): 31.1% | viability, T/C (second compound 0.316 µM, first compound 1 µM): 20.4% | viability, T/C (second compound 1 µM, first compound 0.00316 µM): 91.2% | viability, T/C (second compound 1 µM, first compound 0.01 µM): 95.8% | viability, T/C (second compound 1 µM, first compound 0.0316 µM): 60.4% | viability, T/C (second compound 1 µM, first compound 0.1 µM): 43.8% | viability, T/C (second compound 1 µM, first compound 0.316 µM): 34.4% | viability, T/C (second compound 1 µM, first compound 1 µM): 21.1% | viability, T/C (second compound 3.16 µM, first compound 0.00316 µM): 56.3% | viability, T/C (second compound 3.16 µM, first compound 0.01 µM): 58.7% | viability, T/C (second compound 3.16 µM, first compound 0.0316 µM): 42.4% | viability, T/C (second compound 3.16 µM, first compound 0.1 µM): 40% | viability, T/C (second compound 3.16 µM, first compound 0.316 µM): 30.3% | viability, T/C (second compound 3.16 µM, first compound 1 µM): 17% | viability, T/C (second compound 10 µM, first compound 0.00316 µM): 36.5% | viability, T/C (second compound 10 µM, first compound 0.01 µM): 38.3% | viability, T/C (second compound 10 µM, first compound 0.0316 µM): 31.6% | viability, T/C (second compound 10 µM, first compound 0.1 µM): 31.9% | viability, T/C (second compound 10 µM, first compound 0.316 µM): 22.1% | viability, T/C (second compound 10 µM, first compound 1 µM): 12.3%

CCC(CC)c1cc(NC2CCC(N)C2)n2nccc2n1 (centres undefined) + CCn1c(-c2cccnc2C(C)OC)c2c3cc(ccc31)N1CCOC(CC(NC(=O)C(C(C)C)N(C)C(=O)C3(F)CCN(C(=O)C#CC(C)(C)N(C)C)CC3)C(=O)N3CCCC(N3)C(=O)OCC(C)(C)C2)C1
IC50 (second compound 0.000949 µM): < 31.6 nM | IC50 (second compound 0.003 µM): < 31.6 nM | IC50 (second compound 0.00949 µM): < 31.6 nM | IC50 (second compound 0.03 µM): < 31.6 nM | IC50 (second compound 0.0949 µM): < 31.6 nM | IC50 (second compound 0.3 µM): < 31.6 nM | viability, T/C (second compound 0.000949 µM, first compound 0.0316 µM): 32.7% | viability, T/C (second compound 0.000949 µM, first compound 0.1 µM): 33.7% | viability, T/C (second compound 0.000949 µM, first compound 0.316 µM): 24.4% | viability, T/C (second compound 0.000949 µM, first compound 1 µM): 28% | viability, T/C (second compound 0.000949 µM, first compound 3.16 µM): 3.12% | viability, T/C (second compound 0.000949 µM, first compound 10 µM): 0.38% | viability, T/C (second compound 0.003 µM, first compound 0.0316 µM): 27.1% | viability, T/C (second compound 0.003 µM, first compound 0.1 µM): 25.2% | viability, T/C (second compound 0.003 µM, first compound 0.316 µM): 28.3% | viability, T/C (second compound 0.003 µM, first compound 1 µM): 25.9% | viability, T/C (second compound 0.003 µM, first compound 3.16 µM): 1.84% | viability, T/C (second compound 0.003 µM, first compound 10 µM): 0.31% | viability, T/C (second compound 0.00949 µM, first compound 0.0316 µM): 27.7% | viability, T/C (second compound 0.00949 µM, first compound 0.1 µM): 25.1% | viability, T/C (second compound 0.00949 µM, first compound 0.316 µM): 31.2% | viability, T/C (second compound 0.00949 µM, first compound 1 µM): 25.8% | viability, T/C (second compound 0.00949 µM, first compound 3.16 µM): 1.37% | viability, T/C (second compound 0.00949 µM, first compound 10 µM): 0.37% | viability, T/C (second compound 0.03 µM, first compound 0.0316 µM): 25.3% | viability, T/C (second compound 0.03 µM, first compound 0.1 µM): 28.2% | viability, T/C (second compound 0.03 µM, first compound 0.316 µM): 28% | viability, T/C (second compound 0.03 µM, first compound 1 µM): 25.3% | viability, T/C (second compound 0.03 µM, first compound 3.16 µM): 0.57% | viability, T/C (second compound 0.03 µM, first compound 10 µM): 0.34% | viability, T/C (second compound 0.0949 µM, first compound 0.0316 µM): 25.7% | viability, T/C (second compound 0.0949 µM, first compound 0.1 µM): 25.3% | viability, T/C (second compound 0.0949 µM, first compound 0.316 µM): 28.1% | viability, T/C (second compound 0.0949 µM, first compound 1 µM): 24.1% | viability, T/C (second compound 0.0949 µM, first compound 3.16 µM): 0.71% | viability, T/C (second compound 0.0949 µM, first compound 10 µM): 0.48% | viability, T/C (second compound 0.3 µM, first compound 0.0316 µM): 22.5% | viability, T/C (second compound 0.3 µM, first compound 0.1 µM): 24.1% | viability, T/C (second compound 0.3 µM, first compound 0.316 µM): 27.1% | viability, T/C (second compound 0.3 µM, first compound 1 µM): 20.8% | viability, T/C (second compound 0.3 µM, first compound 3.16 µM): 0.58% | viability, T/C (second compound 0.3 µM, first compound 10 µM): 0.67%
